The source made the active and inactive calls. The rule behind the calls is not given here.
Key:
PC-3 [1] = assay: Cytotoxicity against human PC3 cells assessed as reduction in cell viability after 72 hrs by MTT assay; format: functional, cell-based; settings: PC-3, 72 h
MCF7 = assay: cells; settings: Homo sapiens, MCF7, 72 h
Description: Cytotoxicity against human MCF7 cells assessed as reduction in cell viability after 72 hrs by MTT assay

PC-3 [2] = assay: Induction of mitochondrial membrane potential loss in human PC3 cells assessed as fluorescence intensity at cytotoxic IC50 after 48 hrs by TMRE dye-based fluorescence assay based flow cytometry (reference value: 210.8); format: functional
PC-3 [3] = assay: Induction of cell cycle arrest in human PC3 cells assessed as effect on S phase at cytotoxic IC50 after 48 hrs by propidium iodide staining based flow cytometry; format: functional
[4] = Cytotoxicity against human HSF cells assessed as reduction in cell viability after 72 hrs by MTT assay; format: cell-based
PC-3 [5] = assay: Induction of cell cycle arrest in human PC3 cells assessed as effect on G2/M phase at cytotoxic IC50 after 48 hrs by propidium iodide staining based flow cytometry; format: functional
PC-3 [6] = assay: Induction of cell cycle arrest in human PC3 cells assessed as effect on G0/G1 phase at cytotoxic IC50 after 48 hrs by propidium iodide staining based flow cytometry; format: functional
PC-3 [7] = assay: Induction of mitochondrial membrane potential loss in human PC3 cells assessed as fluorescence intensity at cytotoxic IC50 after 48 hrs by TMRE dye-based fluorescence assay based flow cytometry relative to untreated control; format: functional

Row | SMILES | IC50 (PC-3 [1]) | IC50 (MCF7) | Flu intensity (PC-3 [2]) | Activity (PC-3 [3]) | IC50 [4] | Activity (PC-3 [5]) | Activity (PC-3 [6]) | Activity (PC-3 [7]) | fold change (FC) (PC-3 [7])
1 | C=C(C)[C@@H]1CC[C@]2(COC(=O)CCCC[P+](c3ccccc3)(c3ccccc3)c3ccccc3)CC[C@]3(C)[C@H](CC[C@@H]4[C@@]5(C)CC[C@H](O)C(C)(C)[C@@H]5CC[C@]43C)[C@@H]12.[Br-] | 0.12 µM | 0.7 µM | 186.6 | inactive | 1.5 µM | inactive | inactive |  | 
2 | C=C(C)[C@@H]1CC[C@]2(CO)CC[C@]3(C)[C@H](CC[C@@H]4[C@@]5(C)CC[C@H](O)C(C)(C)[C@@H]5CC[C@]43C)[C@@H]12 [BETULIN] |  |  | 205.9 | inactive |  | inactive | inactive |  | 
3 | C=C(C)[C@@H]1CC[C@]2(COC(=O)C[P+](c3ccccc3)(c3ccccc3)c3ccccc3)CC[C@]3(C)[C@H](CC[C@@H]4[C@@]5(C)CC[C@H](OC(=O)C[P+](c6ccccc6)(c6ccccc6)c6ccccc6)C(C)(C)[C@@H]5CC[C@]43C)[C@@H]12 | 6.9 µM | 8.7 µM |  |  | 5.6 µM |  |  |  | 
4 | C=C(C)[C@@H]1CC[C@]2(COC(=O)CCCCBr)CC[C@]3(C)[C@H](CC[C@@H]4[C@@]5(C)CC[C@H](OC(=O)CCCCBr)C(C)(C)[C@@H]5CC[C@]43C)[C@@H]12 |  |  | 187.9 | inactive |  | inactive | inactive | 10% | 
5 | C=C(C)[C@@H]1CC[C@]2(COC(=O)CCCC[P+](c3ccccc3)(c3ccccc3)c3ccccc3)CC[C@]3(C)[C@H](CC[C@@H]4[C@@]5(C)CC[C@H](OC(=O)CCCC[P+](c6ccccc6)(c6ccccc6)c6ccccc6)C(C)(C)[C@@H]5CC[C@]43C)[C@@H]12.[Br-].[Br-] | 0.47 µM | 0.48 µM | 112.2 | inactive | 0.76 µM | inactive | inactive |  | 2
6 | C=C(C)[C@@H]1CC[C@]2(COC(=O)CCC[P+](c3ccccc3)(c3ccccc3)c3ccccc3)CC[C@]3(C)[C@H](CC[C@@H]4[C@@]5(C)CC[C@H](OC(=O)CCC[P+](c6ccccc6)(c6ccccc6)c6ccccc6)C(C)(C)[C@@H]5CC[C@]43C)[C@@H]12.[Br-].[Br-] | 0.54 µM | 0.35 µM | 90.1 | inactive | 0.86 µM | inactive | inactive |  | 2
7 | CC[C@]1(O)C[C@@H]2CN(CCc3c([nH]c4ccccc34)[C@@](C(=O)OC)(c3cc4c(cc3OC)N(C)[C@H]3[C@@](O)(C(=O)OC)[C@H](OC(C)=O)[C@]5(CC)C=CCN6CC[C@]43[C@@H]65)C2)C1 [VINBLASTINE] |  | 0.5 µM |  |  |  |  |  |  | 
8 | C=C(C)[C@@H]1CC[C@]2(COC(=O)C[P+](c3ccccc3)(c3ccccc3)c3ccccc3)CC[C@]3(C)[C@H](CC[C@@H]4[C@@]5(C)CC[C@H](O)C(C)(C)[C@@H]5CC[C@]43C)[C@@H]12 | 6.8 µM | > 10 µM |  |  | 9.9 µM |  |  |  | 
9 | C=C(C)[C@@H]1CC[C@]2(COC(=O)CCC[P+](c3ccccc3)(c3ccccc3)c3ccccc3)CC[C@]3(C)[C@H](CC[C@@H]4[C@@]5(C)CC[C@H](O)C(C)(C)[C@@H]5CC[C@]43C)[C@@H]12 | 0.16 µM | 0.43 µM |  |  | 2.1 µM |  |  |  | 
10 | COc1cccc2c1C(=O)c1c(O)c3c(c(O)c1C2=O)C[C@@](O)(C(=O)CO)C[C@@H]3O[C@H]1C[C@H](N)[C@H](O)[C@H](C)O1 [DOXORUBICIN] |  | 0.15 µM |  |  |  |  |  |  | 

— ChEMBL document CHEMBL4190299, “Design, Synthesis, and Cancer Cell Growth Inhibitory Activity of Triphenylphosphonium Derivatives of the Triterpenoid Betulin” (J Nat Prod, 2017)
